According to patent US9505713B2, “High-purity sodium p-styrenesulfonate with excellent hue, method for producing the same, poly(sodium p-styrenesulfonate) with excellent hue using the same, and dispersant and synthetic starch for clothing finishing using the poly(sodium p-styrenesulfonate)” (TOSOH ORGANIC CHEMICAL CO., LTD., priority 2012, dated 2016):
“And” between values parts separate entries of the source, which are not always exact repeats. Identical values can stand only once.

How the values were obtained:
Type in all cases: physicochemical
[1] = Measurement of repose angle (fluidity of powder)
Experimental: <Measurement of Repose Angle>
(1) Instruments and Apparatus
1) On a dish, 80 g of a sample is naturally dropped through a funnel of the apparatus.
2) The vertical angle (a) of a circular cone formed on the dish is read with the protractor up to a digit of an integer.
3) This operation is repeated 3 times, and the average value of the vertical angle (a) of the circular cone is determined.
(§1) The repose angle is calculated by the following equation. […] A=(180−a)/2 wherein A is the repose angle (degrees) and a is the vertical angle (degrees) of the circular cone. <Measurement of Rate of Dissolution (Solubility in Water)>

[2] = Whiteness and yellowness of sodium p-styrenesulfonate powder with color-difference meter; conditions: sodium p-styrenesulfonate crystal powder
Experimental: <Measurement of Whiteness and Yellowness of Sodium p-Styrenesulfonate with Color-Difference Meter>
After a color-difference meter (manufactured by Nippon Denshoku Industries Co., Ltd., C-106) was switched on and stabilized for 30 minutes, a light projection lens (30 mm in diameter) and a sample stand (30 mm in diameter) were attached thereto, and standard adjustment was performed. In a cell, 3.0 g of a sample was weighed, and a weight of 1 kg was placed thereon for 30 seconds. Thereafter, it was confirmed that there were no space and no wrinkles at a bottom portion of the cell. Measurement was made with the color-difference meter to read the whiteness (WI value) and the yellowness (YI value).

[3] = Measurement of rate of dissolution (solubility in water); conditions: 25° C.
Experimental: as §1
In a 20-ml glass sample bottle (27 mm in outer diameter×55 mm in depth), 1.00 g of a sodium p-styrenesulfonate powder (wet powder containing impurities and water) was accurately weighed in a temperature-controlled room of 25° C., and thereafter, 9.00 g of ion-exchanged water was quickly added thereto. Then, the sample bottle was turned upside down with a period of one cycle per second, and the time before dissolution of sodium p-styrenesulfonate was visually judged.

[4] = Measurement of particle size distribution (laser diffraction/scattering, Microtrack HRA)
Experimental: <Measurement of Particle Size Distribution>
In a 30-ml glass sample bottle, 0.55 g of a sample and 15.0 g of isopropanol were collected, and treated with an ultrasonic washer for 4 minutes while keeping the temperature at 25° C. or less to prepare a slurry. Thereafter, the particle size (median diameter) distribution was measured under the following conditions, using a laser diffraction/scattering type particle size analyzer, Microtrack HRA (manufactured by Nikkiso Co., Ltd.).
Particle transparency=Transp
Particle refractive Index=1.55
Fluid refractive Index=1.38

[5] = APHA values of 15 wt % aqueous sodium p-styrenesulfonate and poly(sodium p-styrenesulfonate) solutions; conditions: 15 wt % aqueous solution of the monomer
Experimental: <Measurement of APHA values of Aqueous Sodium p-Styrenesulfonate and Aqueous Poly(Sodium p-Styrenesulfonate) Solutions>
After a color-difference meter (manufactured by Nippon Denshoku Industries Co., Ltd., C-106) was switched on and stabilized for 30 minutes, a measuring method was changed to transmission, and a light projection lens (30 mm in diameter) and a sample stand (30 mm in diameter) were attached thereto. A standard white plate and a 0-CAL plate were set, and zero calibration was performed. After water was poured in a square cell and standard calibration was performed, 15 wt % aqueous sodium p-styrenesulfonate solution and 15 wt % aqueous poly(sodium p-styrenesulfonate) solution samples were each transferred into the square cell, and set, followed by reading the APHA values (converted from a calibration curve prepared by using standard solutions having APHA values of 0 to 500).

[6] = sodium p-styrenesulfonate powder, Table 1, smaller = better fluidity
[7] = 1.00 g powder in 9.00 g ion-exchanged water, Table 1
[8] = sodium p-styrenesulfonate powder, Table 1
[9] = listed as sodium p-styrenesulfonate A
[10] = after purification, Table 2, 1.00 g in 9.00 g water
[11] = before purification, Table 2, 1.00 g in 9.00 g water
[12] = listed as sodium p-styrenesulfonate B

| Repose angle [1, 6] | Whiteness (WI value) [2] | Yellowness (YI value) [2] | Rate of dissolution (dissolution time in water) [3, 7] | Median diameter [4, 8] | Small particles less than 10.00 μm [4, 8] | Solution APHA value (hue of sodium p-styrenesulfonate) [5] | Repose angle ([1]; before purification, Table 2) | Rate of dissolution (dissolution time in water) [3, 11] | Median diameter ([4]; before purification, Table 2) | Small particles less than 10.00 μm ([4]; before purification, Table 2) | SMILES | other results |
| --- | --- | --- | --- | --- | --- | --- | --- | --- | --- | --- | --- | --- |
|  |  |  |  |  |  |  | 43 deg | 200 s | 110 μm and 110.0 μm | 0.0% | C=Cc1ccc(S(=O)(=O)[O-])cc1.[Na+] [Example 7, sodium p-styrenesulfonate] |  |
|  |  |  |  |  |  |  | 47 deg | 160 s | 63.1 μm | 1.5% | C=Cc1ccc(S(=O)(=O)[O-])cc1.[Na+] [Example 6, sodium p-styrenesulfonate] |  |
|  |  |  |  |  |  |  | 45 deg | 270 s | 160 μm and 160.0 μm | 0.0% | C=Cc1ccc(S(=O)(=O)[O-])cc1.[Na+] [Comparative Example 8, sodium p-styrenesulfonate] |  |
| 49 deg | 95.5 | 2.9 | 155 s | 63 μm and 63.0 μm | 2.0% | 15 |  |  |  |  | C=Cc1ccc(S(=O)(=O)[O-])cc1.[Na+] [Example 2, sodium p-styrenesulfonate] |  |
| 59 deg | 91.0 | 16.0 | 122 s | 21.3 μm | 12.7% | 200 |  |  |  |  | C=Cc1ccc(S(=O)(=O)[O-])cc1.[Na+] [Comparative Example 6, sodium p-styrenesulfonate] | Whiteness (WI value) [2, 12]: 91.0; Yellowness (YI value) [2, 12]: 16.0; Solution APHA value (hue of sodium p-styrenesulfonate) [5, 12]: 200 |
|  |  |  |  |  |  |  | 59 deg | 130 s | 19.8 μm | 13.6% | C=Cc1ccc(S(=O)(=O)[O-])cc1.[Na+] [Comparative Example 7, sodium p-styrenesulfonate] | Repose angle ([1]; after purification, Table 2): 58 deg; Rate of dissolution (dissolution time in water) [3, 10]: 128 s; Median diameter ([4]; after purification, Table 2): 22.3 μm; Small particles less than 10.00 μm ([4]; after purification, Table 2): 3.1% |

The next lines start with the molecule.

| SMILES | Repose angle [1, 6] | Whiteness (WI value) [2] | Yellowness (YI value) [2] | Rate of dissolution (dissolution time in water) [3, 7] | Median diameter [4, 8] | Small particles less than 10.00 μm [4, 8] | Solution APHA value (hue of sodium p-styrenesulfonate) [5] | Repose angle ([1]; before purification, Table 2) | Rate of dissolution (dissolution time in water) [3, 11] | Median diameter ([4]; before purification, Table 2) | Small particles less than 10.00 μm ([4]; before purification, Table 2) | other results |
| --- | --- | --- | --- | --- | --- | --- | --- | --- | --- | --- | --- | --- |
| C=Cc1ccc(S(=O)(=O)[O-])cc1.[Na+] [Comparative Example 4, sodium p-styrenesulfonate] | 60 deg | 93.0 | 10.1 | 126 s | 20.6 μm | 14.3% | 120 |  |  |  |  |  |
| C=Cc1ccc(S(=O)(=O)[O-])cc1.[Na+] [Comparative Example 1, sodium p-styrenesulfonate] | 60 deg | 90.2 | 16.5 | 132 s | 20.2 μm | 12.6% | 220 |  |  |  |  | Whiteness (WI value) [2, 9]: 90.2; Yellowness (YI value) [2, 9]: 16.5; Solution APHA value (hue of sodium p-styrenesulfonate) [5, 9]: 220 |
| C=Cc1ccc(S(=O)(=O)[O-])cc1.[Na+] [Comparative Example 9, sodium p-styrenesulfonate] |  |  |  |  |  |  |  | 59 deg | 127 s | 22.0 μm | 12.5% | Repose angle ([1]; after purification, Table 2): 58 deg; Rate of dissolution (dissolution time in water) [3, 10]: 130 s; Median diameter ([4]; after purification, Table 2): 25.1 μm; Small particles less than 10.00 μm ([4]; after purification, Table 2): 1.6% |
| C=Cc1ccc(S(=O)(=O)[O-])cc1.[Na+] [Example 5, sodium p-styrenesulfonate] | 59 deg | 95.0 | 7.5 | 130 s | 18.6 μm | 14.3% | 80 |  |  |  |  |  |
| C=Cc1ccc(S(=O)(=O)[O-])cc1.[Na+] [Comparative Example 3, sodium p-styrenesulfonate] | 59 deg | 93.5 | 12.5 | 123 s | 21.5 μm | 12.1% | 150 |  |  |  |  |  |
| C=Cc1ccc(S(=O)(=O)[O-])cc1.[Na+] [Example 1, sodium p-styrenesulfonate] | 46 deg | 95.7 | 5.8 | 165 s | 81 μm and 81.0 μm | 0.5% | 30 |  |  |  |  |  |
| C=Cc1ccc(S(=O)(=O)[O-])cc1.[Na+] [Example 8, sodium p-styrenesulfonate] |  |  |  |  |  |  |  | 51 deg | 140 s | 37 μm and 37.0 μm | 3.1% |  |
| C=Cc1ccc(S(=O)(=O)[O-])cc1.[Na+] [Example 9, sodium p-styrenesulfonate] |  |  |  |  |  |  |  |  |  |  |  | Repose angle ([1]; after purification, Table 2): 50 deg; Rate of dissolution (dissolution time in water) [3, 10]: 130 s; Median diameter ([4]; after purification, Table 2): 48 μm and 48.0 μm; Small particles less than 10.00 μm ([4]; after purification, Table 2): 2.5% |
